Source: US12653191B2, “Active compound combinations” (Bayer Aktiengesellschaft, priority 2020, dated 2026)

Columns and labels:
Assay type in all cases: cell-based
Fusarium culmorum = test: in vitro-Test with fungal microorganisms, Method B (tables G5-G15)
Protocol: (§1) Example: In Vitro-Test with Fungal Microorganisms
(§2) Wells of 96-well microtiter plates are filled with 30 μl of a preparation of test compound or compound combination in methanol+emulsifier alkylaryl-polyglycol-ether. Thereafter, the solvent is evaporated in a hood. At the next step, 200 μl of liquid growth medium is given, that has been amended with an appropriate concentration of spores or mycelium suspension of the test fungus.
(§3) With the aid of a photometer, the extinction in all wells is measured at the wavelength of 600 nm.
(§4) The microtiter plates are incubated for 3 to 7 days at 20° C. and 85% relative humidity. After the incubation inhibition of growth is determined photometrically. Efficacy is calculated in relation to the untreated control, 0% efficacy means fungal growth as high as in untreated control while 100% efficacy means no fungal growth is measured.
(§5) The data in tables A1 to A12, B1 to B14, C1 to C10, D1 to D8, E1 to E8, F1 to F11, G1 to G4, H1 to H4 and I1 to I5 were collected according to Method A. The data in tables A13 to A22, B15 to B18, C11 to C20, E9 to E16, F12 to F15, G5 to G15, H5 to H8, I6 to I11 and J1 to J11 were collected according to Method B.

Botrytis cinerea = test: in vitro-Test with fungal microorganisms, Method B (tables B15-B18)
Protocol: as §1, §2, §3, §4, §5

Alternaria alternata = test: in vitro-Test with fungal microorganisms, Method B (tables A13-A22)
Protocol: as §1, §2, §3, §4, §5

Cercospora beticola = test: in vitro-Test with fungal microorganisms, Method B (tables C11-C20); conditions: 20 ppm
Protocol: as §1, §2, §3, §4, §5

[1] = tested on: Ustilago segetum var. avenae; test: in vitro-Test with fungal microorganisms, Method B (tables I6-I11); conditions: alone
Protocol: as §1, §2, §3, §4, §5

Cc1ccc(C[C@@H]2CON=C(c3cc(C)nnc3Oc3cccc(Cl)c3F)N2)c(Cl)c1 [Compound I-338, (5R)-3-[3-(3-chloro-2-fluorophenoxy)-6-methylpyridazin-4-yl]-5-(2-chloro-4-methylbenzyl)-5,6-dihydro-4H-1,2,4-oxadiazine]
inhibition of growth at 0.008 ppm (Fusarium culmorum; Fusarium culmorum, 0.008 ppm, alone, read-out: Efficacy): 22% | inhibition of growth at 0.04 ppm (Fusarium culmorum; Fusarium culmorum, 0.04 ppm, alone, read-out: Efficacy): 21% | inhibition of growth at 0.2 ppm (Fusarium culmorum; Fusarium culmorum, 0.2 ppm, alone, read-out: Efficacy): 0% | inhibition of growth at 1 ppm (Fusarium culmorum; Fusarium culmorum, 1 ppm, alone, read-out: Efficacy): 0% | inhibition of growth at 1 ppm (Botrytis cinerea; Botrytis cinerea, 1 ppm alone, read-out: Efficacy %): 85% | Efficacy (Alternaria alternata; 0.008 ppm): 0% | inhibition of growth at 0.008 ppm (Alternaria alternata; Alternaria alternata, 0.008 ppm, read-out: Efficacy): 0%

CS(=O)(=O)Oc1cccc(Cl)c1C1CC(c2csc(C3CCN(C(=O)Cn4nc(C(F)F)cc4C(F)F)CC3)n2)=NO1 (stereo not shown) [fluoxapiprolin]
Efficacy % (Cercospora beticola): 0% | Efficacy % (Botrytis cinerea; 0.8 ppm, alone): 0% | Efficacy % (Botrytis cinerea; 4 ppm alone): 6% | Efficacy % (Botrytis cinerea; 20 ppm alone): 5% | Efficacy (Alternaria alternata; 4 ppm): 0% | Efficacy (Alternaria alternata; 20 ppm): 1% | Efficacy (Alternaria alternata; single compound, 0.8 ppm): 0%

N#Cc1ccc(Oc2ccc(C(F)(F)C(O)(Cn3[nH]cnc3=S)c3ccc(F)cc3F)nc2)cc1 (stereo not shown) [fluoxytioconazole]
Efficacy % ([1]; 0.008 ppm): 8% | Efficacy % ([1]; 0.04 ppm): 35% | Efficacy % ([1]; 0.2 ppm): 100% | Efficacy (Fusarium culmorum; 0.008 ppm alone): 12% | Efficacy (Fusarium culmorum; 1 ppm alone): 27% | Efficacy % (Botrytis cinerea; 0.008 ppm alone): 0% | Efficacy % (Botrytis cinerea; 0.2 ppm alone): 0% | Efficacy % (Botrytis cinerea; 1 ppm alone): 13% | Efficacy (Alternaria alternata; single compound, 0.008 ppm): 5%

CCO[PH](=O)O [fosetyl-al]
Efficacy % (Botrytis cinerea; 4 ppm alone): 2% | Efficacy % (Botrytis cinerea; 100 ppm alone): 0%
